Test results taken from publication PMC6264460, “Lead Generation and Optimization Based on Protein-Ligand Complementarity” (Molecules, 2010).

Target: T1, JNK3 (Homo sapiens, UniProt P53779)
T1 construct: made in house
Assay: Inhibition of ATP hydrolysis by JNK3 (coupled NADH oxidation assay)
Type: biochemical
Settings: ATP hydrolysis by JNK3, 100 nM JNK3, pH 7.6, 1% DMSO
Text: To measure the inhibitory activity of the Z1208, we used the following assay system: adenosine triphosphate (ATP), phosphoenolpyruvate (PEP), nicotinamide adenine dinucleotide (NADH), and a solution mixture of pyruvate kinase and L-lactate dehydrogenase (PK-L-LDH) were purchased from Roche Diagnostics. Other reagents were purchased from Sigma-Aldrich. JNK3 was expressed and purified by the method of Xie et al.. After a purification step, JNK3 was activated by GST-fused MKK7 and further purified against a glutathione-fixed column. […] The conversion of NADH was measured by kinetic monitoring with SpectraMax 190 (Molecular Devices).

T1 sequence (P53779 40-402 limits assumed): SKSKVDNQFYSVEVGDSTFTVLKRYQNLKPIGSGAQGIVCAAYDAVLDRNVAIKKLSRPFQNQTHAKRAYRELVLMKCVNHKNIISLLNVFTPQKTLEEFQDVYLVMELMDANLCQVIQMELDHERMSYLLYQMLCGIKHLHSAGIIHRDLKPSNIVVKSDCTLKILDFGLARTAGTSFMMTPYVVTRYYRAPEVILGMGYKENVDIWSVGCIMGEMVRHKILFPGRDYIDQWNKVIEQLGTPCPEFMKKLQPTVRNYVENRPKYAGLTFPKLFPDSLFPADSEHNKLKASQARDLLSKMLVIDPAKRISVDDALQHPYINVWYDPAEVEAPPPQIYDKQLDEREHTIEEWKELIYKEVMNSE

IC50: 62.9 µM
Compound: CN1c2c[nH]nc2C(O)=C(C(=O)Nc2ccc(Cl)c(Cl)c2)S1(=O)=O [Z1208-8]
